This note sets out measurements from ChEMBL document CHEMBL4152370, “Identification of N-(5-(phenoxymethyl)-1,3,4-thiadiazol-2-yl)acetamide derivatives as novel protein tyrosine phosphatase epsilon inhibitors exhibiting anti-osteoclastic activity” (Bioorg Med Chem, 2018).

As a reminder, the IC50 is the concentration needed to halve the response being measured.

The target in series [1] is T1, Receptor-type tyrosine-protein phosphatase epsilon (Homo sapiens, UniProt P23469). The series is described as follows: Inhibition of recombinant human cytosolic PTPepsilon expressed in Escherichia coli BL21 (DE3) using E527-P-Q-pY530-Q-P-G-E-N-L536 as substrate after 60 mins by malachite green assay.
T1 sequence (P23469 whole entry): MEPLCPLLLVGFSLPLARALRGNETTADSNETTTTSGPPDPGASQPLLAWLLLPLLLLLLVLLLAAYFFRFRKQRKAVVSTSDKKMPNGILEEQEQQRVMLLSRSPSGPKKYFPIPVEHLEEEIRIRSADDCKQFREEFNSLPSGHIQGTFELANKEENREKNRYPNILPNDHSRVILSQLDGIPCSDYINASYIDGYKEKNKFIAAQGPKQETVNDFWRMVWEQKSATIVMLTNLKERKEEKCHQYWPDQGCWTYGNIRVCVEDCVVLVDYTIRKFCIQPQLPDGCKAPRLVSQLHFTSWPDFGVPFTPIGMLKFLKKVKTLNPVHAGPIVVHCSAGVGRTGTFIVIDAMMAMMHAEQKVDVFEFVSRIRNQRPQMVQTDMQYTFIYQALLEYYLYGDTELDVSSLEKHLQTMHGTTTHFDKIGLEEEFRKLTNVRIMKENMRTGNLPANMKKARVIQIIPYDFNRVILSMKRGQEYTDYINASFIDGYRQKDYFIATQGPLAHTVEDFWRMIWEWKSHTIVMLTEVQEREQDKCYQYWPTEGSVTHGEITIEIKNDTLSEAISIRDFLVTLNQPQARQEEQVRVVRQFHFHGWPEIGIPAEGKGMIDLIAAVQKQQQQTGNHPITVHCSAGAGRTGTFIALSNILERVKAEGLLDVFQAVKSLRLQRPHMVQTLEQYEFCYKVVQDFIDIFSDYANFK
Series [2] concerns the target T1, Receptor-type tyrosine-protein phosphatase epsilon. Description: Inhibition of cytosolic PTPepsilon in human monocyte-derived osteoclasts assessed as relative level of Tyr530 phosphorylated c-Src/beta actin at 17 uM after 15 mins in presence of M-CSF/RANKL by Western blot method relative to control.
Series [3] deals with Osteoclast. Description: Effect on relative level of total c-Src/beta-actin in human monocyte-derived osteoclasts at 17 uM after 15 mins in presence of M-CSF/RANKL by Western blot method relative to control. The note with it: 0.25 h. The series is classed as cell-based.
Series [4] relates to Osteoclast. The series is described as follows: Cytotoxicity against human monocyte-derived osteoclasts assessed as effect on cell viability at 2 to 17 uM by formazan-based spectrometric method.
Series [5] deals with T1, Receptor-type tyrosine-protein phosphatase epsilon. The series is described as follows: Inhibition of cytosolic PTPepsilon in human monocyte-derived osteoclasts assessed as disruption of podosome organization at 17 uM after 4 days in presence of M-CSF/RANKL by DAPI staining-based immunofluorescence assay.
For a further series, the system named is Monocyte. Description: Inhibition of RANKL-induced human monocytes differentiation into osteoclasts after 4 days in presence of M-CSF by tartrate-resistant acid phosphatase staining based assay. It counts as functional, cell-based.

Active and inactive are the calls of the source. No cut-off for these calls is given here.

As to `COc1ccccc1OCC(=O)Nc1nnc(COc2ccccc2)s1`, the IC50 in series [1] worked out at 3700 nM.

`O=C(COc1ccc2c(c1)OCO2)Nc1nnc(COc2ccc(Cl)cc2)s1`: the IC50 in series [1] came out at 2010 nM.

Turning to `Cc1ccc(NC(=O)Nc2nnc(COc3ccc(C)cc3C)s2)cc1`, the IC50 in series [1] stood at 2470 nM. For the same molecule, the fold change (FC) in series [2] was determined as 1.87; with Osteoclast [3], 1.12. Besides, in the series on Osteoclast [4], the Activity result was “Non-Toxic”. In addition, in series [5], the inhibition result is “Active”. In addition, the inhibition result in the series on Monocyte was “Dose-dependent effect”.

On to `Cc1ccc(OCc2nnc(NC(=O)Nc3ccc(F)c(Cl)c3)s2)c(C)c1`, for which the half-maximal inhibitory concentration (IC50) in series [1] was found to be 1860 nM. Also, the fold change (FC) in series [2] was determined as 1.57; with Osteoclast [3] it was 1.29. Further, the Activity result in the series on Osteoclast [4] was “Non-Toxic”. The inhibition result in series [5] is “Active”. Moreover, the inhibition entry with Monocyte was “Dose-dependent effect”.

As for `CCC(C)c1ccc(OCc2nnc(NC(=O)Nc3ccccc3OC)s2)cc1` (stereo not given), in series [1], the IC50 was found to be 4170 nM.
